Measured values as given in patent US4199570A, “1-N-Hetero containing aminoglycoside derivatives” (Shionogi & Co., Ltd., priority 1977, dated 1980).
≈ marks a conversion by molar mass, not a printed value.

Experiments:
[1] = system: Escherichia coli W-677/JR 66; test: MIC (Table 2); settings: W677/JR66, read-out: Minimum Inhibitory Concentration (MIC)
Proteus inconstans In-27 = test: MIC (Table 2); format: cell-based; settings: Providencia alcalifaciens, IN27, tobramycin resistant strain, read-out: Minimum Inhibitory Concentration (MIC)
Proteus mirabilis Pm-5 = test: MIC (Table 2); settings: PM5, read-out: Minimum Inhibitory Concentration (MIC)
[2] = system: Serratia marcescens MA-26; test: MIC (Table 2); settings: MA26, read-out: Minimum Inhibitory Concentration (MIC)
Sarcina lutea PCI 1001 = test: MIC (Table 2); format: cell-based; settings: Micrococcus luteus, PCI1001, read-out: Minimum Inhibitory Concentration (MIC)
[3] = system: Enterobacter cloacae CI-38; test: MIC (Table 2); settings: CI38, read-out: Minimum Inhibitory Concentration (MIC)
[4] = system: Klebsiella pneumoniae Kl 38; test: MIC (Table 2); settings: KL38, read-out: Minimum Inhibitory Concentration (MIC)
Escherichia coli TB-705 = test: MIC (Table 2); format: cell-based; settings: TB705, read-out: Minimum Inhibitory Concentration (MIC)
[5] = system: Escherichia coli W-677/JR 762; test: MIC (Table 2); settings: W677/JR762, read-out: Minimum Inhibitory Concentration (MIC)
[6] = system: Pseudomonas aeruginosa PP-6; test: MIC (Table 2); settings: PP6, read-out: Minimum Inhibitory Concentration (MIC)
[7] = system: Streptococcus pyogenes ATCC 10389; test: MIC (Table 2); settings: ATCC10389, read-out: Minimum Inhibitory Concentration (MIC)
[8] = system: Citrobactor freundii Ct-31; test: MIC (Table 2); settings: read-out: Minimum Inhibitory Concentration (MIC)
[9] = system: Staphylococcus aureus 80285; test: MIC (Table 2); settings: Staphylococcus aureus, 80285, read-out: Minimum Inhibitory Concentration (MIC)
[10] = system: Escherichia coli W-677/JR 214; test: MIC (Table 2); settings: W677/JR214, read-out: Minimum Inhibitory Concentration (MIC)
[11] = system: Streptococcus pyogenes C-203; test: MIC (Table 3); settings: C203, read-out: Minimum Inhibitory Concentration (MIC)
[12] = system: Escherichia coli W-677/JR-762; test: MIC (Table 3); settings: W677/JR762, read-out: Minimum Inhibitory Concentration (MIC)
[13] = system: Pseudomonas aeruginosa PP-6; test: MIC (Table 3); format: cell-based; settings: PP6, read-out: Minimum Inhibitory Concentration (MIC)
Proteus mirabilis TB-617 = test: MIC (Table 3); format: cell-based; settings: TB617, read-out: Minimum Inhibitory Concentration (MIC)
[14] = compared with kanamycin A; cited from earlier work
[15] = system: kanamycin A resistant strains; settings: cited from earlier work

SMILES | MIC [1] | MIC (Proteus inconstans In-27) | MIC (Proteus mirabilis Pm-5) | MIC [2] | MIC (Sarcina lutea PCI 1001) | MIC [3] | MIC [4] | MIC (Escherichia coli TB-705) | MIC [5] | MIC [6] | MIC [7] | MIC [8] | MIC [9] | MIC [10] | MIC [11] | MIC [12] | MIC [13] | MIC (Proteus mirabilis TB-617) | toxicity [14] | effect against kanamycin A resistant strains [15]
NC[C@H]1O[C@H](O[C@H]2[C@H](O)[C@@H](O[C@H]3O[C@H](CO)[C@@H](O)[C@H](N)[C@H]3O)[C@H](NC(=O)C3(O)CNC3)C[C@@H]2N)[C@H](N)C[C@@H]1O [Comp. (1), 1-N-(3-hydroxyazetidine-3-carbonyl)tobramycin] | 3.13 µg/mL (≈ 5.52 µM) | 12.5 µg/mL (≈ 22.1 µM) | 1.56 µg/mL (≈ 2.75 µM) | 6.25 µg/mL (≈ 11 µM) | 3.13 µg/mL (≈ 5.52 µM) | 0.78 µg/mL (≈ 1.38 µM) | 0.78 µg/mL (≈ 1.38 µM) | 3.13 µg/mL (≈ 5.52 µM) | 3.13 µg/mL (≈ 5.52 µM) | 3.13 µg/mL (≈ 5.52 µM) | 25 µg/mL (≈ 44.1 µM) | 1.56 µg/mL (≈ 2.75 µM) | 0.78 µg/mL (≈ 1.38 µM) | 3.13 µg/mL (≈ 5.52 µM) | – | – | – | – | – | –
NC[C@H]1O[C@H](O[C@H]2[C@H](O)[C@@H](O[C@H]3O[C@H](CO)[C@@H](O)[C@H](N)[C@H]3O)[C@H](NC(=O)C3(O)CNC3)C[C@@H]2N)[C@H](O)[C@@H](O)[C@@H]1O [Comp. (2), 1-N-(3-hydroxyazetidine-3-carbonyl)kanamycin A] | 6.25 µg/mL (≈ 10.7 µM) | 6.25 µg/mL (≈ 10.7 µM) | 6.25 µg/mL (≈ 10.7 µM) | 12.5 µg/mL (≈ 21.4 µM) | 12.5 µg/mL (≈ 21.4 µM) | 3.13 µg/mL (≈ 5.36 µM) | 1.56 µg/mL (≈ 2.67 µM) | 12.5 µg/mL (≈ 21.4 µM) | 12.5 µg/mL (≈ 21.4 µM) | 6.25 µg/mL (≈ 10.7 µM) | 50 µg/mL (≈ 85.7 µM) | 3.13 µg/mL (≈ 5.36 µM) | 12.5 µg/mL (≈ 21.4 µM) | 3.13 µg/mL (≈ 5.36 µM) | – | – | – | – | – | –
NC[C@H]1O[C@H](O[C@H]2[C@H](O)[C@@H](O[C@H]3O[C@H](CO)[C@@H](O)[C@H](N)[C@H]3O)[C@H](N)C[C@@H]2N)[C@H](O)[C@@H](O)[C@@H]1O [KM-A, kanamycin A] | > 100 µg/mL | > 100 µg/mL | > 100 µg/mL | > 100 µg/mL | 12.5 µg/mL (≈ 25.8 µM) | > 100 µg/mL | > 100 µg/mL | > 100 µg/mL | > 100 µg/mL | > 100 µg/mL | 100 µg/mL (≈ 206 µM) | > 100 µg/mL | > 100 µg/mL | > 100 µg/mL | – | – | – | – | – | –
NC[C@H]1O[C@H](O[C@H]2[C@H](O)[C@@H](O[C@H]3O[C@H](CO)[C@@H](O)[C@H](N)[C@H]3O)[C@H](N)C[C@@H]2N)[C@H](N)C[C@@H]1O [TOB, tobramycin] | 25 µg/mL (≈ 53.5 µM) | 12.5 µg/mL (≈ 26.7 µM) | 12.5 µg/mL (≈ 26.7 µM) | 50 µg/mL (≈ 107 µM) | 12.5 µg/mL (≈ 26.7 µM) | 0.78 µg/mL (≈ 1.67 µM) | 1.56 µg/mL (≈ 3.34 µM) | 6.25 µg/mL (≈ 13.4 µM) | 100 µg/mL (≈ 214 µM) | > 100 µg/mL | 25 µg/mL (≈ 53.5 µM) | 3.13 µg/mL (≈ 6.69 µM) | 0.78 µg/mL (≈ 1.67 µM) | 100 µg/mL (≈ 214 µM) | 6.2 µg/mL (≈ 13.3 µM) | 25 µg/mL (≈ 53.5 µM) | 100 µg/mL (≈ 214 µM) | 6.2 µg/mL (≈ 13.3 µM) | – | –
NCC[C@H](O)C(=O)N[C@@H]1C[C@H](N)[C@@H](O[C@H]2O[C@H](CN)[C@@H](O)[C@H](O)[C@H]2O)[C@H](O)[C@H]1O[C@H]1O[C@H](CO)[C@@H](O)[C@H](N)[C@H]1O [amikacin] | – | – | – | – | – | – | – | – | – | – | – | – | – | – | – | – | – | – | approximately the same as kanamycin A | effective against kanamycin A resistant strains
